Results as given in patent US20190029257A1, “APPLICATION FOR HERBICIDE-TOLERANT PROTEIN” (BEIJING DABEINONG TECHNOLOGY GROUP CO., LTD., priority 2016, published 2019).

Experiments:
Assay type in all cases: in vivo
[1] = tested on: Gm chloroplastic ALT-1-01 soybean plants; assay: Glyphosate tolerance of soybean plants (herbicide damage rate); conditions: 840 g ae/ha, 1-fold field concentration; 14 DAT
From the text: (§1) The herbicide tolerance effects of Gm cytoplasmic ALT-1-01 soybean plants, Gm chloroplastic ALT-1-01 soybean plants, Gm cytoplasmic ALT-2-01 soybean plants, Gm chloroplastic ALT-2-01 soybean plants, Gm cytoplasmic ALT-3-01 soybean plants, Gm chloroplastic ALT-3-01 soybean plants and wild-type soybean plants on glyphosate were detected (at seedling stage), respectively.
(§2) 2 strains from Gm cytoplasmic ALT-1-01 soybean plants, Gm chloroplastic ALT-1-01 soybean plants, Gm cytoplasmic ALT-2-01 soybean plants, Gm chloroplastic ALT-2-01 soybean plants, Gm cytoplasmic ALT-3-01 soybean plants, Gm chloroplastic ALT-3-01 soybean plants and wild-type soybean plants were respectively taken each, and 10-15 plants were selected from each strain and tested. The plants above were sprayed with glyphosate (840 g ae/ha, 1-fold field concentration) and a blank solvent (water). The herbicide damage rate was measured for each plant according to the phytotoxicity symptoms 14 days after spraying (14 DAT): herbicide damage rate (%)=Σ(number of damaged plants at the same level×level number)/(total number of plants×highest level).

[2] = tested on: Gm chloroplastic ALT-2-01 soybean plants; assay: as above; conditions: 840 g ae/ha, 1-fold field concentration; 14 DAT
From the text: as §1, §2

[3] = tested on: Gm chloroplastic ALT-3-01 soybean plants; assay: as above; conditions: 840 g ae/ha, 1-fold field concentration; 14 DAT
From the text: as §1, §2

[4] = tested on: Gm cytoplasmic ALT-1-01 soybean plants; assay: as above; conditions: 840 g ae/ha, 1-fold field concentration; 14 DAT
From the text: as §1, §2

[5] = tested on: Gm cytoplasmic ALT-2-01 soybean plants; assay: as above; conditions: 840 g ae/ha, 1-fold field concentration; 14 DAT
From the text: as §1, §2

[6] = tested on: Gm cytoplasmic ALT-3-01 soybean plants; assay: as above; conditions: 840 g ae/ha, 1-fold field concentration; 14 DAT
From the text: as §1, §2

[7] = tested on: wild-type soybean plants (CK1); assay: as above; conditions: 840 g ae/ha, 1-fold field concentration; 14 DAT
From the text: as §1, §2

[8] = tested on: At chloroplastic ALT-1-01 T1 plants; assay: Herbicide tolerance of Arabidopsis thaliana T1 plants (spray, resistance classes counted); conditions: number of plants 14 days after spraying
From the text: (§3) T1 transformants were initially selected from the background of untransformed seeds using a glufosinate selection scheme. About 40000 T1 seeds were screened, and 380 T1 positive transformants (PAT gene) were identified with a transformation efficiency of about 0.95%. The plants that were transformed with the recombinant expression vector DBN100632 were Arabidopsis thaliana plants having an ALT-1-01 nucleotide sequence located in the cytoplasm introduced (At cytoplasmic ALT-1-01), and the plants that were transformed with the recombinant expression vector DBN100631 were Arabidopsis thaliana plants having an ALT-1-01 nucleotide sequence located in the chloroplast introduced (At chloroplastic ALT-1-01); the plants that were transformed with the recombinant expression vector DBN100634 were Arabidopsis thaliana plants having an ALT-2-01 nucleotide sequence located in the cytoplasm introduced (At cytoplasmic ALT-2-01), and the plants that were transformed with the recombinant expression vector DBN100633 were Arabidopsis thaliana plants having an ALT-2-01 nucleotide sequence located in the chloroplast introduced (At chloroplastic ALT-2-01); and the plants that were transformed with the recombinant expression vector DBN100636 were Arabidopsis thaliana plants having an ALT-3-01 nucleotide sequence located in the cytoplasm introduced (At cytoplasmic ALT-3-01), and the plants that were transformed with the recombinant expression vector DBN100635 were Arabidopsis thaliana plants having an ALT-3-01 nucleotide sequence located in the chloroplast introduced (At chloroplastic ALT-3-01). The herbicide tolerance effects of At cytoplasmic ALT-1-01 T1 plants, At chloroplastic ALT-1-01 T1 plants, At cytoplasmic ALT-2-01 T1 plants, At chloroplastic ALT-2-01 T1 plants, At cytoplasmic ALT-3-01 T1 plants, At chloroplastic ALT-3-01 T1 plants and wild-type Arabidopsis thaliana plants on halosulfuron-methyl were detected (14 days after sowing), respectively.
(§4) […] Plants were counted for the resistance situations 14 days after spraying: those having a consistent growth status with the blank solvent (water) group after 14 days were classified as highly resistant plants, those having a bolting height less than ½ of that of the blank solvent (water) group after 14 days were classified as moderately resistant plants, those still not capable of bolting after 14 days were classified as poorly resistant plants, and those dead after 14 days were classified as non-resistant plants. Since each Arabidopsis thaliana T1 plant was an independent transformation event, a significant difference in individual T1 responses could be expected at a given dose.
as §4, with “situation” for “situations”

[9] = tested on: At chloroplastic ALT-2-01 T1 plants; assay: as above; conditions: number of plants 14 days after spraying
From the text: as §3, §4
as §4, with “situation” for “situations”

[10] = tested on: At chloroplastic ALT-3-01 T1 plants; assay: as above; conditions: number of plants 14 days after spraying, Total 32
From the text: as §3, §4
as §4, with “situation” for “situations”

[11] = tested on: At cytoplasmic ALT-1-01 T1 plants; assay: as above; conditions: number of plants 14 days after spraying, Total 29
From the text: as §3, §4
as §4, with “situation” for “situations”

[12] = tested on: At cytoplasmic ALT-2-01 T1 plants; assay: as above; conditions: number of plants 14 days after spraying
From the text: as §3, §4
as §4, with “situation” for “situations”

[13] = tested on: At cytoplasmic ALT-3-01 T1 plants; assay: as above; conditions: number of plants 14 days after spraying, Total 30
From the text: as §3, §4
as §4, with “situation” for “situations”

[14] = tested on: wild-type Arabidopsis thaliana plants; assay: Herbicide tolerance of Arabidopsis thaliana plants (spray, resistance classes counted); conditions: 10 g ai/ha (1x Iod.); number of plants 14 days after spraying; Total 29
From the text: as §3
(§5) At cytoplasmic ALT-1-01 T1 plants, At chloroplastic ALT-1-01 T1 plants, At cytoplasmic ALT-2-01 T1 plants, At chloroplastic ALT-2-01 T1 plants, At cytoplasmic ALT-3-01 T1 plants, At chloroplastic ALT-3-01 T1 plants and wild-type Arabidopsis thaliana plants were sprayed with halosulfuron-methyl (34 g ai/ha, 1-fold field concentration) and a blank solvent (water), respectively. Plants were counted for the resistance situations 14 days after spraying: those having a consistent growth status with the blank solvent (water) group after 14 days were classified as highly resistant plants, those having a bolting height less than ½ of that of the blank solvent (water) group after 14 days were classified as moderately resistant plants, those still not capable of bolting after 14 days were classified as poorly resistant plants, and those dead after 14 days were classified as non-resistant plants. Since each Arabidopsis thaliana T1 plant was an independent transformation event, a significant difference in individual T1 responses could be expected at a given dose.
At cytoplasmic ALT-1-01 T1 plants, At chloroplastic ALT-1-01 T1 plants, At cytoplasmic ALT-2-01 T1 plants, At chloroplastic ALT-2-01 T1 plants, At cytoplasmic ALT-3-01 T1 plants, At chloroplastic ALT-3-01 T1 plants and wild-type Arabidopsis thaliana plants in Example 4 were sprayed with iodosulfuron-methyl (10 g ai/ha, 1-fold field concentration), mesosulfuron (14 g ai/ha, 1-fold field concentration) and oxasulfuron (60 g ai/ha, 1-fold field concentration), respectively, in addition to halosulfuron-methyl (34 g ai/ha, 1-fold field concentration) and the blank solvent (water). […]

[15] = tested on: all the transformed Arabidopsis thaliana T1 plants (ALT-1, ALT-2 and ALT-3); assay: Herbicide tolerance of Arabidopsis thaliana T1 plants; conditions: 1-fold field concentration; summary of Table 2
From the text: as §5
At cytoplasmic ALT-1-01 T1 plants, At chloroplastic ALT-1-01 T1 plants, At cytoplasmic ALT-2-01 T1 plants, At chloroplastic ALT-2-01 T1 plants, At cytoplasmic ALT-3-01 T1 plants, At chloroplastic ALT-3-01 T1 plants and wild-type Arabidopsis thaliana plants in Example 4 were sprayed with iodosulfuron-methyl (10 g ai/ha, 1-fold field concentration), mesosulfuron (14 g ai/ha, 1-fold field concentration) and oxasulfuron (60 g ai/ha, 1-fold field concentration), respectively, in addition to halosulfuron-methyl (34 g ai/ha, 1-fold field concentration) and the blank solvent (water). Plants were counted for the resistance situation 14 days after spraying: those having a consistent growth status with the blank solvent (water) group after 14 days were classified as highly resistant plants, those having a bolting height less than ½ of that of the blank solvent (water) group after 14 days were classified as moderately resistant plants, those still not capable of bolting after 14 days were classified as poorly resistant plants, and those dead after 14 days were classified as non-resistant plants. Since each Arabidopsis thaliana T1 plant was an independent transformation event, a significant difference in individual T1 responses could be expected at a given dose.

[16] = 14 g ai/ha (1x Mes.), genotype cell prints only "At"

Structure (SMILES): O=C(O)CNCP(=O)(O)O [glyphosate, N-phosphonomethylglycine]
- glyphosate herbicide damage rate [1]: ~0%
- glyphosate herbicide damage rate [2]: ~0%
- glyphosate herbicide damage rate [3]: ~0%
- glyphosate herbicide damage rate [4]: ~0%
- glyphosate herbicide damage rate [5]: ~0%
- glyphosate herbicide damage rate [6]: ~0%
- glyphosate herbicide damage rate [7]: not less than 90%

Structure (SMILES): COC(=O)c1ccc(I)cc1S(=O)(=O)NC(=O)Nc1nc(C)nc(OC)n1 [iodosulfuron-methyl]
- Highly resistant ([8]; 10 g ai/ha (1x Iod.), Total 30): 0
- Moderately resistant ([8]; 10 g ai/ha (1x Iod.), Total 30): 0
- Non-resistant ([8]; 10 g ai/ha (1x Iod.), Total 30): 30
- Poorly resistant ([8]; 10 g ai/ha (1x Iod.), Total 30): 0
- Highly resistant ([9]; 10 g ai/ha (1x Iod.), Total 31): 0
- Moderately resistant ([9]; 10 g ai/ha (1x Iod.), Total 31): 0
- Non-resistant ([9]; 10 g ai/ha (1x Iod.), Total 31): 31
- Poorly resistant ([9]; 10 g ai/ha (1x Iod.), Total 31): 0
- Highly resistant ([10]; 10 g ai/ha (1x Iod.)): 0
- Moderately resistant ([10]; 10 g ai/ha (1x Iod.)): 0
- Non-resistant ([10]; 10 g ai/ha (1x Iod.)): 32
- Poorly resistant ([10]; 10 g ai/ha (1x Iod.)): 0
- Highly resistant ([11]; 10 g ai/ha (1x Iod.)): 0
- Moderately resistant ([11]; 10 g ai/ha (1x Iod.)): 0
- Non-resistant ([11]; 10 g ai/ha (1x Iod.)): 29
- Poorly resistant ([11]; 10 g ai/ha (1x Iod.)): 0
- Highly resistant ([12]; 10 g ai/ha (1x Iod.), Total 30): 0
- Moderately resistant ([12]; 10 g ai/ha (1x Iod.), Total 30): 0
- Non-resistant ([12]; 10 g ai/ha (1x Iod.), Total 30): 30
- Poorly resistant ([12]; 10 g ai/ha (1x Iod.), Total 30): 0
- Highly resistant ([13]; 10 g ai/ha (1x Iod.)): 0
- Moderately resistant ([13]; 10 g ai/ha (1x Iod.)): 0
- Non-resistant ([13]; 10 g ai/ha (1x Iod.)): 30
- Poorly resistant ([13]; 10 g ai/ha (1x Iod.)): 0
- Highly resistant [14]: 0
- Moderately resistant [14]: 0
- Non-resistant [14]: 29
- Poorly resistant [14]: 0
- ability of the transformed plants to degrade the herbicide [15]: did not exhibit the ability to degrade
- degree of damage, transformed versus wild-type plants [15]: no difference

Structure (SMILES): COC(=O)c1ccc(CNS(C)(=O)=O)cc1S(=O)(=O)NC(=O)Nc1nc(OC)cc(OC)n1 [mesosulfuron]
- Highly resistant ([8]; 14 g ai/ha (1x Mes.), Total 32): 0
- Moderately resistant ([8]; 14 g ai/ha (1x Mes.), Total 32): 0
- Non-resistant ([8]; 14 g ai/ha (1x Mes.), Total 32): 32
- Poorly resistant ([8]; 14 g ai/ha (1x Mes.), Total 32): 0
- Highly resistant ([9]; 14 g ai/ha (1x Mes.), Total 30): 0
- Moderately resistant ([9]; 14 g ai/ha (1x Mes.), Total 30): 0
- Non-resistant ([9]; 14 g ai/ha (1x Mes.), Total 30): 30
- Poorly resistant ([9]; 14 g ai/ha (1x Mes.), Total 30): 0
- Highly resistant [10, 16]: 0
- Moderately resistant [10, 16]: 0
- Non-resistant [10, 16]: 32
- Poorly resistant [10, 16]: 0
- Highly resistant ([11]; 14 g ai/ha (1x Mes.)): 0
- Moderately resistant ([11]; 14 g ai/ha (1x Mes.)): 0
- Non-resistant ([11]; 14 g ai/ha (1x Mes.)): 29
- Poorly resistant ([11]; 14 g ai/ha (1x Mes.)): 0
- Highly resistant ([12]; 14 g ai/ha (1x Mes.), Total 32): 0
- Moderately resistant ([12]; 14 g ai/ha (1x Mes.), Total 32): 0
- Non-resistant ([12]; 14 g ai/ha (1x Mes.), Total 32): 32
- Poorly resistant ([12]; 14 g ai/ha (1x Mes.), Total 32): 0
- Highly resistant ([13]; 14 g ai/ha (1x Mes.)): 0
- Moderately resistant ([13]; 14 g ai/ha (1x Mes.)): 0
- Non-resistant ([13]; 14 g ai/ha (1x Mes.)): 30
- Poorly resistant ([13]; 14 g ai/ha (1x Mes.)): 0
- ability of the transformed plants to degrade the herbicide [15]: did not exhibit the ability to degrade
- degree of damage, transformed versus wild-type plants [15]: no difference

Structure (SMILES): Cc1cc(C)nc(NC(=O)NS(=O)(=O)c2ccccc2C(=O)OC2COC2)n1 [oxasulfuron]
- ability of the transformed plants to degrade the herbicide [15]: did not exhibit the ability to degrade
- degree of damage, transformed versus wild-type plants [15]: no difference
